The target of one assay is T1, human cathepsin L (Homo sapiens, UniProt P07711).
T1 construct: purchased Enzo Life Sciences, Lörrach, Germany
The assay is described as follows: Cathepsin L inhibition assay (Cbz-Phe-Arg-pNA). It is filed as biochemical. How it is done:
1. Enzyme Inhibition Assays and Kinetic Data of Inhibition of Cathepsins B, L, K and S General. Human cathepsins were assayed either fluorimetrically or spectrophotometrically as noted below. The 10 mM inhibitor solutions were prepared in DMSO. The final concentration of DMSO in all assays was 2%. Non-linear regressions were conducted with GraFit 5. Residual cathepsin activity at an inhibitor concentration of 20 µM was determined from duplicate measurements based on the product formation after 60 min. Concentration dependent measurements were performed in duplicate measurements with five different inhibitor concentrations when the residual cathepsin activity in the presence of 20 µM inhibitor was below 70% (cathepsin B) or below 50% (cathepsins cathepsins L, K, and S). Progress curves were monitored for 60 min. First-order rate constants, kobs, were determined by non-linear regression following the equation [P] = vi × (1 – exp(-kobs × t))/kobs + d, where [P] is the product concentration, vi is the initial product formation rate, kobs is the observed first-order rate constant, and d is the offset. Mean values of kobs were plotted versus corresponding inhibitor concentrations [I], and second-order rate constants of inactivation, kinac/Ki, were obtained by linear regression. The equation kobs/[I] = (kinac/Ki)/(1 + [S]/Km) was used, where [S] is the substrate concentration and Km is the Michaelis-Menten constant. Standard errors (SE) refer to the linear regression. […] Cathepsin L inhibition assay.[1] Human isolated cathepsin L (Enzo Life Sciences, Lörrach, Germany) was assayed spectrophotometrically on a Cary 50 or 100 Bio, Varian, at 405 nm. The reactions were followed at 37 °C. Assay buffer was 100 mM sodium phosphate buffer pH 6.0, 100 mM NaCl, 5 mM EDTA, and 0.01% Brij 35. A stock solution of human cathepsin L of 135 μg/mL in 20 mM malonate buffer pH 5.5, 400 mM NaCl, and 1 mM EDTA was diluted 1:100 with assay buffer containing 5 mM DTT and incubated for 30 min at 37 °C. A 10 mM stock solution of the chromogenic substrate Cbz-Phe-Arg-pNA was prepared in DMSO. The final concentration of the substrate was 100 μM (= 5.88 Km).
Into a cuvette containing 940 μL assay buffer, inhibitor solution and DMSO in a total volume of 10 μL, and 10 μL of the substrate solution were added and mixed. The reaction was initiated by adding 40 μL of the cathepsin L solution.

In the next assay the target is T2, human cathepsin S (Homo sapiens, UniProt P25774).
T2 construct: purchased Enzo Life Sciences, Lörrach, Germany
T2 sequence (P25774 115-331): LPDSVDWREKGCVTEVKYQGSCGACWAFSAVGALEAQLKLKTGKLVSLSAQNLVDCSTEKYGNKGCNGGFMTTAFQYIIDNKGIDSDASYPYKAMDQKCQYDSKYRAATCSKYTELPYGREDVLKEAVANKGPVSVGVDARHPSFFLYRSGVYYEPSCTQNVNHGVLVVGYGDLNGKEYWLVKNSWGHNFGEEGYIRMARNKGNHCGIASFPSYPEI
Nature of the assay: Cathepsin S inhibition assay (Cbz-Phe-Arg-AMC). The format is biochemical. How it is done:
1. Enzyme Inhibition Assays and Kinetic Data of Inhibition of Cathepsins B, L, K and S General. Human cathepsins were assayed either fluorimetrically or spectrophotometrically as noted below. The 10 mM inhibitor solutions were prepared in DMSO. The final concentration of DMSO in all assays was 2%. Non-linear regressions were conducted with GraFit 5. Residual cathepsin activity at an inhibitor concentration of 20 µM was determined from duplicate measurements based on the product formation after 60 min. Concentration dependent measurements were performed in duplicate measurements with five different inhibitor concentrations when the residual cathepsin activity in the presence of 20 µM inhibitor was below 70% (cathepsin B) or below 50% (cathepsins cathepsins L, K, and S). Progress curves were monitored for 60 min. First-order rate constants, kobs, were determined by non-linear regression following the equation [P] = vi × (1 – exp(-kobs × t))/kobs + d, where [P] is the product concentration, vi is the initial product formation rate, kobs is the observed first-order rate constant, and d is the offset. Mean values of kobs were plotted versus corresponding inhibitor concentrations [I], and second-order rate constants of inactivation, kinac/Ki, were obtained by linear regression. The equation kobs/[I] = (kinac/Ki)/(1 + [S]/Km) was used, where [S] is the substrate concentration and Km is the Michaelis-Menten constant. Standard errors (SE) refer to the linear regression. […]
methyl-coumarin (AMC)-based fluorogenic substrate Cbz-Leu-Arg-AMC was prepared in DMSO. The final concentration of the substrate was 40 μM (= 13.3 Km). When using the spectrofluorometer, into a cuvette containing 960 μL assay buffer, inhibitor solution and DMSO in a total volume of 16 μL, and 4 […]
When using the plate reader, into a well containing 192 µL assay buffer, inhibitor solution and DMSO in a total volume of 3.2 µL and 0.8 µL of the substrate solution were added and mixed. The reaction was initiated by adding 4 µL of the cathepsin K solution.
Cathepsin S inhibition assay.[2] Human recombinant cathepsin S (Enzo Life Sciences, Lörrach, […]
nm and for emission 440 nm. The reactions were followed at 25 °C. Assay buffer was 100 mM sodium phosphate buffer pH 6.0, 100 mM NaCl, 5 mM EDTA, and 0.01% Brij 35. A stock solution of human cathepsin S of 70 μg/mL in 100 mM MES buffer, pH 6.5, 1 mM EDTA, 50 mM L-cysteine, 10 mM DTT, 0.5% Triton X-100 and 30% glycerol was diluted 1:100 with a 50 mM sodium phosphate buffer pH 6.5, 50 mM NaCl, 2 mM EDTA, 0.01% Triton X-100 and 5 mM DTT and incubated for 60 min at 37 °C. A 10 mM stock solution of the fluorogenic substrate Cbz-Phe-Arg-AMC was prepared in DMSO.
The assay was performed with a final substrate concentration of 40 µM (= 0.74 Km). When using the spectrofluorometer, into a cuvette containing 920 μL assay buffer, inhibitor solution and DMSO in a total volume of 16 μL, and 4 μL of the substrate solution were added and mixed. The reaction was initiated by adding 60 μL of the cathepsin S solution. When using the plate reader, into a well containing 188 µL assay buffer, inhibitor solution and DMSO in a total volume of 3.2 µL and 0.8 µL of the substrate solution were added and mixed. The reaction was initiated by adding […] of the cathepsin S solution.

[1] abbreviates: 20 µM inhibitor, 60 min, read-out: Residual activity @ 20 µM (%) Cat L.
Where [2] appears, read: 20 µM inhibitor, 60 min, read-out: Residual activity @ 20 µM (%) Cat S.
Where [3] appears, read: inhibitor not soluble at 20 µM, calculated for 20 µM from IC50 at two lower concentrations, read-out: Residual activity @ 20 µM (%) Cat L, approximated [e].
[4] abbreviates: inhibitor not soluble at 20 µM, calculated for 20 µM from IC50 at two lower concentrations, read-out: Residual activity @ 20 µM (%) Cat S, approximated [e].

Like-named read-outs stand apart in the source and are kept apart here.

T1 sequence (P07711 114-333): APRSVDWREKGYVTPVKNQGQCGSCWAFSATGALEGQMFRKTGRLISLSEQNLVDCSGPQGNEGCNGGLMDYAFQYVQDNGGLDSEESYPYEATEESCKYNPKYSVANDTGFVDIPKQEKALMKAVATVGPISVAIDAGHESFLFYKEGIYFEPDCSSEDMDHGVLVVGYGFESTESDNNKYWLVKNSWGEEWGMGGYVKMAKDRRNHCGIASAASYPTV

For `CC(C)CC(NC(=O)Oc1ccccc1)C(=O)NC(Cc1ccccc1)C(=O)O` (stereo not drawn) [Compound 1], the figures for the remaining activity at 20 µM at human cathepsin L (setting [1]) and at human cathepsin S (setting [2]) were 94% and 97%, respectively.

On to `CC(C)C[C@H](NC(=O)Oc1ccc(Cl)cc1)C(=O)N[C@@H](Cc1ccccc1)C(=O)OC(C)(C)C` [Compound 2], for which the remaining activity at 20 µM at human cathepsin L (setting [1]) was 96%; on human cathepsin S (setting [2]), at least 98%.

As for `COC(=O)C(Cc1ccccc1)NC(=O)C(CC(C)C)NC(=O)Oc1ccc(Cl)cc1` (stereo not drawn) [Compound 3], the results for the remaining activity at 20 µM on human cathepsin L (setting [1]) and on human cathepsin S (setting [2]) were 85% and 79%, respectively.

As to `CC(C)C[C@H](NC(=O)Oc1ccc(Cl)cc1)C(=O)N[C@@H](Cc1ccccc1)C(=O)O` [Compound 4], the values for the remaining activity at 20 µM on human cathepsin L (setting [1]) and at human cathepsin S (setting [2]) were 92% and 83%, respectively.

Turning to `CC(C)CC(CNC(=O)Oc1ccc(Cl)cc1)C(=O)N[C@H](Cc1ccccc1)C(=O)O` (stereo partly drawn) [Compound 5], the remaining activity at 20 µM at human cathepsin L (setting [1]) was 90%. Also, the “kinac/Ki ± SE Cat S” value on human cathepsin S (five inhibitor concentrations, 60 min progress curves) is 10.2 M⁻¹ s⁻¹.

Regarding `O=C(NC(CC1CCCCC1)C(=O)NC(Cc1ccccc1)C(=O)O)Oc1ccc(Cl)cc1` (stereo not drawn) [Compound 7], the remaining activity at 20 µM on human cathepsin L (setting [1]) is 86%; on human cathepsin S (setting [2]), 72%.

Turning to `CC(C)C[C@H](NC(=O)Oc1ccc(Cl)cc1)C(=O)N1CCC[C@H]1C(=O)O` [Compound 8], the remaining activity at 20 µM at human cathepsin L (setting [1]) was 97%; at human cathepsin S (setting [2]), at least 98%.

For `CC(C)CC(CNC(=O)Oc1ccc(Cl)cc1)C(=O)N1CCC[C@@H]1C(=O)O` (stereo partly drawn) [Compound 9], the figures for the remaining activity at 20 µM at human cathepsin L (setting [1]) and at human cathepsin S (setting [2]) were 95% and 92%, respectively.

With `CC(C)C[C@H](NC(=O)Oc1ccc(Cl)cc1)C(=O)N1CCCC[C@H]1C(=O)O` [Compound 10], the remaining activity at 20 µM at human cathepsin L (setting [1]) was 91%; on human cathepsin S (setting [2]) it was at least 98%.

Regarding `CC(C)C[C@@H](C(=O)N1CCC[C@H]1C(=O)O)N(C)C(=O)Oc1ccc(Cl)cc1` [Compound 15], the remaining activity at 20 µM at human cathepsin L (setting [1]) is 97%; at human cathepsin S (setting [2]) it was at least 98%.

As for `CC(C)CC(OC(=O)Nc1ccc(Cl)cc1)C(=O)N[C@@H](Cc1ccccc1)C(=O)O` (stereo partly drawn) [Compound 16], the remaining activity at 20 µM on human cathepsin L (setting [1]) is 95%; at human cathepsin S (setting [2]), 56%.

As to `CC(C)CC(OC(=O)Nc1ccc(Cl)cc1)C(=O)N1CCC[C@H]1C(=O)O` (stereo partly drawn) [Compound 17], the figures for the remaining activity at 20 µM on human cathepsin L (setting [1]) and at human cathepsin S (setting [2]) were 94% and 93%, respectively.

For `CC(C)C[C@H](NC(=O)Nc1ccc(Cl)cc1)C(=O)N[C@@H](Cc1ccccc1)C(=O)O` [Compound 18], the remaining activity at 20 µM at human cathepsin L (setting [1]) is 94%; at human cathepsin S (setting [2]) it was 78%.

As to `CC(C)C[C@H](NC(=O)Nc1ccc(Cl)cc1)C(=O)N1CCC[C@H]1C(=O)O` [Compound 19], the remaining activity at 20 µM is 96% on human cathepsin L (setting [1]) and at least 98% on human cathepsin S (setting [2]).

As for `CC(C)C[C@H](NC(=O)Oc1ccc(Cl)c(NC(=O)Cc2ccccc2)c1)C(=O)N1CCC[C@H]1C(=O)O` [Compound 20], the remaining activity at 20 µM on human cathepsin L (setting [1]) was 96%; on human cathepsin S (setting [2]), 93%.

Turning to `CC(C)C[C@H](NC(=O)Oc1ccc(-c2ccccc2)c(NC(=O)Cc2ccccc2)c1)C(=O)N1CCC[C@H]1C(=O)O` [Compound 21], the remaining activity at 20 µM on human cathepsin L (setting [1]) is 92%; on human cathepsin S (setting [2]), 89%.

For the compound `CC(C)CC(NC(=O)Oc1ccc(Cl)c(NC(=O)C(c2ccccc2)c2ccccc2)c1)C(=O)N1CCCC1C(=O)O` (stereo not drawn) [Compound 22], the values for the remaining activity at 20 µM at human cathepsin L (setting [3]) and on human cathepsin S (setting [2]) were 59% and 87%, respectively.

For `CC(C)C[C@H](NC(=O)Oc1cccc(Cl)c1)C(=O)N1CCC[C@H]1C(=O)O` [Compound 23], the values for the remaining activity at 20 µM on human cathepsin L (setting [1]) and on human cathepsin S (setting [2]) were 92% and 89%, respectively.

`CC(C)C[C@H](NC(=O)Oc1ccc(NC(=O)Cc2ccccc2)c(Cl)c1)C(=O)N1CCC[C@H]1C(=O)O` [Compound 24]: the figures for the remaining activity at 20 µM on human cathepsin L (setting [1]) and at human cathepsin S (setting [2]) were 97% and 90%, respectively.

Consider `CC(C)CC(NC(=O)Oc1ccc(NC(=O)c2ccc(-c3ccccc3)cc2)c(Cl)c1)C(=O)N1CCCC1C(=O)O` (stereo not drawn) [Compound 25], for which the remaining activity at 20 µM on human cathepsin L (setting [1]) was 94%; at human cathepsin S (setting [4]), 53%.

Consider `CC(C)C[C@H](NC(=O)Oc1ccc(NC(=O)N(Cc2ccccc2)Cc2ccccc2)c(Br)c1)C(=O)N1CCC[C@H]1C(=O)O` [Compound 26], for which, on human cathepsin S (setting [2]), the remaining activity at 20 µM turned out to be 59%.

For the compound `CC(C)CC(NC(=O)Oc1ccc(NC(=O)C(c2ccccc2)c2ccccc2)c(Br)c1)C(=O)N1CCCC1C(=O)O` (stereo not drawn) [Compound 27], the remaining activity at 20 µM at human cathepsin L (setting [1]) worked out at 81%; on human cathepsin S (setting [2]), 60%.

On to `CC(C)CC(NC(=O)Oc1ccc(NC(=O)C(c2ccccc2)c2ccccc2)c(Cl)c1)C(=O)N1CCCC1C(=O)O` (stereo not drawn) [Compound 28], for which the remaining activity at 20 µM was 62% on human cathepsin L (setting [3]) and 58% on human cathepsin S (setting [2]).

In the case of `CC(C)CC(NC(=O)Oc1ccc(NC(=O)C(c2ccccc2)c2ccccc2)c(Cl)c1)C(=O)NC(Cc1ccccc1)C(=O)O` (stereo not drawn) [Compound 29], the remaining activity at 20 µM on human cathepsin L (setting [3]) is 70%; at human cathepsin S (setting [4]) it was 63%.

As for `O=C(NC(CC1CCCCC1)C(=O)NC(Cc1ccccc1)C(=O)O)Oc1ccc(NC(=O)C(c2ccccc2)c2ccccc2)c(Cl)c1` (stereo not drawn) [Compound 30], the remaining activity at 20 µM on human cathepsin L (setting [3]) was 64%; at human cathepsin S (setting [4]), 42%.

`O=C(NC(CC1CCCCC1)C(=O)NC(Cc1ccccc1)C(=O)O)Oc1ccc(NC(=O)C(Cc2ccccc2)Cc2ccccc2)c(Cl)c1` (stereo not drawn) [Compound 31]: the remaining activity at 20 µM was 76% on human cathepsin L (setting [3]) and 46% at human cathepsin S (setting [4]).

(Values after PMC12304826, “Redirecting the Peptide Cleavage Causes Protease Inactivation” (Angewandte Chemie (International Ed. in English), 2025).)
